Here are results for four compounds from US20250195542A1, “METABOLIC DISEASE THERAPEUTIC AGENT OR PREVENTIVE AGENT” (Peking University, priority 2022, published 2025).

Structures are written as SMILES.

The test system of assay [1] is non-alcoholic steatohepatitis (NASH) in MCD mice. Description: Pathological (H&E) staining of liver sections from MCD mice, Example 6. It is filed as in vivo, C57BL/6J mice. The conditions noted are these: oral 4 weeks, Antcin K 20 mg/kg, Antcin C 20 and 40 mg/kg, AK-GLU 26.6 mg/kg, better than obeticholic acid and DEA, FIG. 9. How it is done: (§1) The MCD mouse model and drug administration method were the same as in Example 4. After the final treatment, the mice were sacrificed, and the liver tissue samples were fixed overnight in 4% paraformaldehyde, embedded in paraffin, and sectioned. The sections were stained with hematoxylin and eosin (H&E) according to the following procedure: immerse the sections in the following solutions sequentially: xylene (I) for 15 minutes, xylene (II) for 15 minutes, 50% xylene-absolute ethanol for 2 minutes, absolute ethanol (I) for 5 minutes, absolute ethanol (II) for 5 minutes, 80% ethanol for 5 minutes, distilled water for 5 minutes, hematoxylin staining solution for 5 minutes, rinse with running water for 5 minutes, 1% hydrochloric acid ethanol for 30 seconds, rinse with water for 30 seconds, wash with distilled water for 5 seconds, 0.5% eosin staining solution for 2 minutes, rinse with distilled water for 30 seconds, 80% ethanol for 30 seconds, 95% ethanol (I) for 1 minute, 95% ethanol (II) for 1 minute, absolute ethanol (I) for 3 minutes, absolute ethanol (II) for 3 minutes, xylene (I) for 3 minutes, xylene (II) for 3 minutes, and mount with neutral resin.
(§2) The treated groups were compared with untreated MCD mice (“MCD”) and normal mice (“Nor”). The drug administration doses were as follows: positive control obeticholic acid (OCA): 10 mg/kg; Antcin K (AK): 20 mg/kg; low-dose Antcin C (AC-L): 20 mg/kg; high-dose Antcin C (AC-H): 40 mg/kg; DEA: 20 mg/kg; AK-GLU: 26.6 mg/kg.

Assay [2] has the same test system. Description: Serum ALT in MCD mice (NASH model), Example 6. The conditions noted are these: oral 4 weeks, Antcin K 20 mg/kg, Antcin C 20 and 40 mg/kg, AK-GLU 26.6 mg/kg, better than obeticholic acid 10 mg/kg and DEA 20 mg/kg, FIG. 8. It counts as in vivo, C57BL/6J mice. The method, then: as §1, §2
After the final treatment, the mice were fasted overnight, sacrificed, and blood was collected from the eye vein. The whole blood was allowed to stand for 2 hours, centrifuged at 6000 rpm for 10 minutes, and the serum was obtained.

Assay [3] deals with FGF21. As to the kind of experiment: FGF21 gene expression in the liver of MCD mice (qPCR). It is filed as in vivo, C57BL/6J mice. The conditions noted are these: oral 4 weeks, Antcin C 20 and 40 mg/kg, AK-GLU 26.6 mg/kg, compared to DEA 20 mg/kg, FIG. 6. The method, then: Four-week-old male C57BL/6J mice were purchased from the Experimental Animal Center, Peking University Health Science Center. The mice were randomly divided into groups, with 10 mice per group. Methionine choline-deficient diet (MCD) was used to induce non-alcoholic steatohepatitis (NASH), forming the MCD model mice. The model mice were treated with an oral administration of drugs for 4 weeks. After the final treatment, the mice were fasted overnight, and then sacrificed. Serum and liver tissues were stored at −80° C., which could be compared with untreated MCD mice (“MCD”) and normal mice (“Nor” or “Normal”). The dosing amounts for each group were as follows: low-dose Antcin C (“AC-L”): 20 mg/kg; high-dose Antcin C (“AC-H”): 40 mg/kg; DEA: 20 mg/kg; AK-GLU: 26.6 mg/kg.
Total RNA Extraction: Liver tissue samples from the mice (10-20 mg) were cut into pieces and added to 1 ml of Tranzol. The mixture was placed on ice and homogenized, then transferred to an RNase-free and DNase-free EP tube. To each tube, 0.2 ml of chloroform was added, and the mixture was vigorously shaken for 15 seconds. After incubation at low temperature for 3 minutes, the mixture was centrifuged at 12000 rpm for 15 minutes at 4° C. The aqueous upper phase was transferred to a new EP tube, and an equal volume of isopropanol was added. […] RNA concentration was measured using a spectrophotometer with an A260/280 ratio. […]
On the technique in general: In qPCR the cycle at which signal appears reflects the starting amount.

Assay [4] deals with FGF21. As to the kind of experiment: Serum FGF21 protein in MCD mice (ELISA). It is filed as in vivo, C57BL/6J mice. Conditions: oral 4 weeks, Antcin K 20 mg/kg, Antcin C 20 and 40 mg/kg, AK-GLU 26.6 mg/kg, compared to DEA, FIG. 10. How it is done: The modeling and treatment of MCD mice were conducted as described in Example 4. The treated groups were compared with untreated MCD mice (“MCD”) and normal mice (“Nor”). The dosages for each treatment group were as follows: positive control obeticholic acid (“OCA”): 10 mg/kg; Antcin K (“AK”): 20 mg/kg; low-dose Antcin C (“AC-L”): 20 mg/kg; high-dose Antcin C (“AC-H”): 40 mg/kg; DEA: 20 mg/kg; AK-GLU: 26.6 mg/kg.
The serum sampling method from mice was the same as in Example 6. The FGF21 levels were tested using an ELISA kit (Beyotime), with the following procedure: The microplate was equilibrated at room temperature for 20 minutes. Then, 50 μL of serum samples or different concentrations of standards were added to each well. Next, 100 μL of HRP-conjugated detection antibody was added, and the plate was covered with a sealing film and incubated at 37° C. for 60 minutes. The liquid was discarded, and the plate was dried with absorbent paper. Each well was then washed with 350 μL of washing buffer, left for 1 minute, and the liquid was discarded and dried with absorbent paper. This washing step was repeated 5 times. Then, 50 μL of Substrate A and 50 μL of Substrate B were added to each well and incubated at 37° C. in the dark for 15 minutes. After that, 50 μL of stop solution was added to each well, and the absorbance at 450 nm was measured within 15 minutes. A standard curve was plotted with the absorbance of the standards on the vertical axis and the standard concentrations on the horizontal axis. The serum sample absorbance values were used to determine the FGF21 protein concentrations based on this standard curve.
For orientation: In an ELISA, binding on a coated surface is turned into a signal by an enzyme label.

For assay [5], the system named is FGF21. Description: FGF21 protein expression in the liver of MCD mice (Western blot). It counts as in vivo, C57BL/6J mice. The conditions noted are these: oral 4 weeks, Antcin K 20 mg/kg, Antcin C 20 and 40 mg/kg, compared to DEA 20 mg/kg, FIG. 7. The method, then:
The modeling and procedures for MCD mice are as described in Example 4. Comparisons were made between the treated groups and untreated MCD mice (“MCD”) and normal mice (“Normal”). The dosing for each treatment group was as follows: positive drug obeticholic acid (“OCA”): 10 mg/kg; Antcin K (“AK”): 20 mg/kg; low-dose Antcin C (“AC-L”): 20 mg/kg; high-dose Antcin C (“AC-H”): 40 mg/kg; DEA: 20 mg/kg.
Liver tissue (15-20 mg) was homogenized in RIPA lysis buffer on ice, and then centrifuged at 13,000 rpm for 30 minutes at 4° C. The middle layer liquid was transferred to a new centrifuge tube and the protein concentration was measured using BCA method. For each sample, 20 μg of protein was separated by SDS-PAGE and then transferred to a PDVF membrane using Bio-Rad's standard wet transfer system at 200 mA for 60 minutes. Subsequently, the membrane was cut according to protein molecular weight and blocked with 0.5% BSA at room temperature for 60 minutes. The primary antibody was incubated at 4° C. for 14 hours, followed by washing with TBST at room temperature 3 times for 5 minutes each. The secondary antibody was incubated at room temperature for 1 hour, followed by washing with TBST at room temperature 3 times for 10 minutes each. ECL reagent was used for detection.
Background: Immunoblotting shows a protein as a band on a membrane.

In assay [6] the test system is non-alcoholic steatohepatitis. Conditions: reported; cited from earlier work.

With `C=C(CC[C@@H](C)[C@H]1CC[C@H]2C3=C(C(=O)C[C@]12C)[C@@]1(C)CC[C@@H](O)[C@](C)(O)[C@@H]1C[C@@H]3O[C@@H]1OC(CO)[C@@H](O)[C@H](O)C1O)C(C)C(=O)O` (some centres unmarked) [AK-GLU, Antcin K-7-O-glucoside], the “steatosis and ballooning in the liver” value in assay [1] is given as “significantly reduced”. Besides, the “serum ALT levels” value in assay [2] is “significantly reduced”. In addition, the “gene expression levels of FGF21 in vivo” value with FGF21 [3] is “significantly activated”. In addition, in the assay with FGF21 [4], the “serum FGF21 protein levels” value was “significantly upregulated”.

As to `C=C(CC[C@@H](C)[C@H]1CC[C@H]2C3=C(C(=O)C[C@]12C)[C@@]1(C)CCC(=O)[C@@H](C)[C@@H]1C[C@@H]3O)C(C)C(=O)O` (some centres unmarked) [Antcin C], the “FGF21 protein expression levels in liver” value in the assay on FGF21 [5] is recorded as “significantly upregulated”. Besides, the “steatosis and ballooning in the liver” value in assay [1] is “significantly reduced”. In assay [2], the “serum ALT levels” value is reported as “significantly reduced”. Besides, the “gene expression levels of FGF21 in vivo” value in the assay with FGF21 [3] is given as “significantly activated”. The “serum FGF21 protein levels” value in the assay with FGF21 [4] is given as “significantly upregulated”.

For the compound `C=C(CC[C@@H](C)[C@H]1CC[C@H]2C3=C(C(=O)C[C@]12C)[C@@]1(C)CC[C@@H](O)[C@](C)(O)[C@@H]1C[C@@H]3O)C(C)C(=O)O` (some centres unmarked) [Antcin K], in the assay with FGF21 [5], the “FGF21 protein expression levels in liver” value is on record as “significantly upregulated”. Further, the “steatosis and ballooning in the liver” value in assay [1] was “significantly reduced”. Also, the “serum ALT levels” value in assay [2] is given as “significantly reduced”. Also, the “serum FGF21 protein levels” value in the assay on FGF21 [4] is on record as “significantly upregulated”.

As for `C=C(CC[C@@H](C(=O)O)[C@H]1CC[C@@]2(C)C3=CC[C@H]4C(C)(C)[C@@H](O)CC[C@]4(C)C3=CC[C@]12C)C(C)C` [DEA], the “effect in preventing and treating non-alcoholic steatohepatitis” value in assay [6] is “relatively weak”.
